Test results taken from publication PMC9532703, “A novel small molecule RK-019 inhibits FGFR2-amplification gastric cancer cell proliferation and induces apoptosis in vitro and in vivo” (Frontiers in Pharmacology, 2022).

Tests used:
Assay in all cases: Kinase selectivity panel
Format in all cases: biochemical
ALK2(h) = molecular target: T1, ALK2(h) (Homo sapiens, UniProt Q04771); conditions: read-out: Inhibition(%) @ 1 µM RK-019
T1 construct: purchased Eurofins Discovery Services (KinaseProfiler)
Summary of the method: (§1)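 Selectivity profiling used one concentration (1 µM) in an ATP-site competition binding assay over 422 recombinant human kinases; data given as inhibition ratio.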

ALK6(h) = molecular target: T2, ALK6(h) (Homo sapiens, UniProt O00238); conditions: read-out: Inhibition(%) @ 1 µM RK-019
T2 construct: purchased Eurofins Discovery Services (KinaseProfiler)
Summary of the method: as §1

Abl(h) = molecular target: T3, Abl(h) (Homo sapiens, UniProt P00519); conditions: read-out: Inhibition(%) @ 1 µM RK-019
T3 construct: purchased Eurofins Discovery Services (KinaseProfiler)
Summary of the method: as §1

Abl(m) = molecular target: T4, Abl(m) (Mus musculus, UniProt P00520); conditions: read-out: Inhibition(%) @ 1 µM RK-019
T4 construct: purchased Eurofins Discovery Services (KinaseProfiler)

BTK(h) = molecular target: T5, BTK(h) (Homo sapiens, UniProt Q06187); conditions: read-out: Inhibition(%) @ 1 µM RK-019
T5 construct: purchased Eurofins Discovery Services (KinaseProfiler)
T5 sequence (Q06187 whole entry): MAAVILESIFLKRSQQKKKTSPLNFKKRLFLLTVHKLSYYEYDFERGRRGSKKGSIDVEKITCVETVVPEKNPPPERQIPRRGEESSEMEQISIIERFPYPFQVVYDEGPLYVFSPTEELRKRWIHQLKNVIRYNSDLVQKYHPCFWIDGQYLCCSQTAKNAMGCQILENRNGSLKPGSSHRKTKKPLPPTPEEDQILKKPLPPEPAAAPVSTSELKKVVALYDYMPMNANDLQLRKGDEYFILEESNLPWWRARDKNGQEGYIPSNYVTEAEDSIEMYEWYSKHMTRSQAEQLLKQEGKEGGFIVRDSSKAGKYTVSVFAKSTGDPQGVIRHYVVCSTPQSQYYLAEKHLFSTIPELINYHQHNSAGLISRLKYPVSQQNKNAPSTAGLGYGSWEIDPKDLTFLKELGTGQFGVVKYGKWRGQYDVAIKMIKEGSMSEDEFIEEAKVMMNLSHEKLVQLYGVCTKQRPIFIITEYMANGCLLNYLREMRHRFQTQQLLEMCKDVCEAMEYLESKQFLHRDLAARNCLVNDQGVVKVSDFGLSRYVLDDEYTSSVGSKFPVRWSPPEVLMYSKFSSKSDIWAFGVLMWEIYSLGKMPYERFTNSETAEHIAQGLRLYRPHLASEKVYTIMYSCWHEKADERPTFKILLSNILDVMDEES
Summary of the method: as §1

CDK2/cyclinE(h) = molecular target: T6, CDK2/cyclinE(h) (Homo sapiens, UniProt P24941); conditions: read-out: Inhibition(%) @ 1 µM RK-019
T6 construct: purchased Eurofins Discovery Services (KinaseProfiler)
Summary of the method: as §1

CK1γ2(h) = molecular target: T7, CK1γ2(h) (Homo sapiens, UniProt P78368); conditions: read-out: Inhibition(%) @ 1 µM RK-019
T7 construct: purchased Eurofins Discovery Services (KinaseProfiler)
Summary of the method: as §1

CK2α1(h) = molecular target: T8, CK2α1(h) (Homo sapiens, UniProt P68400); conditions: read-out: Inhibition(%) @ 1 µM RK-019
T8 construct: purchased Eurofins Discovery Services (KinaseProfiler)
Summary of the method: as §1

CaMKIIδ(h) = molecular target: T9, CaMKIIδ(h) (Homo sapiens, UniProt Q13557); conditions: read-out: Inhibition(%) @ 1 µM RK-019
T9 construct: purchased Eurofins Discovery Services (KinaseProfiler)
Summary of the method: as §1

CaMKK2(h) = molecular target: T10, CaMKK2(h) (Homo sapiens, UniProt Q96RR4); conditions: read-out: Inhibition(%) @ 1 µM RK-019
T10 construct: purchased Eurofins Discovery Services (KinaseProfiler)
Summary of the method: as §1

DCAMKL3(h) = molecular target: T11, DCAMKL3(h) (Homo sapiens, UniProt Q9C098); conditions: read-out: Inhibition(%) @ 1 µM RK-019
T11 construct: purchased Eurofins Discovery Services (KinaseProfiler)
Summary of the method: as §1

DDR1(h) = molecular target: T12, DDR1(h) (Homo sapiens, UniProt Q08345); conditions: read-out: Inhibition(%) @ 1 µM RK-019
T12 construct: purchased Eurofins Discovery Services (KinaseProfiler)
Summary of the method: as §1

EGFR(T790M)(h) = molecular target: T13, EGFR(T790M)(h) (Homo sapiens, UniProt P00533, T790M); conditions: read-out: Inhibition(%) @ 1 µM RK-019
T13 construct: purchased Eurofins Discovery Services (KinaseProfiler)
Summary of the method: as §1

EphA8(h) = molecular target: T14, EphA8(h) (Homo sapiens, UniProt P29322); conditions: read-out: Inhibition(%) @ 1 µM RK-019
T14 construct: purchased Eurofins Discovery Services (KinaseProfiler)
Summary of the method: as §1

FGFR1(h) = molecular target: T15, FGFR1(h) (Homo sapiens, UniProt P11362)
T15 construct: purchased Eurofins Discovery Services (KinaseProfiler)
T15 sequence (P11362 22-822): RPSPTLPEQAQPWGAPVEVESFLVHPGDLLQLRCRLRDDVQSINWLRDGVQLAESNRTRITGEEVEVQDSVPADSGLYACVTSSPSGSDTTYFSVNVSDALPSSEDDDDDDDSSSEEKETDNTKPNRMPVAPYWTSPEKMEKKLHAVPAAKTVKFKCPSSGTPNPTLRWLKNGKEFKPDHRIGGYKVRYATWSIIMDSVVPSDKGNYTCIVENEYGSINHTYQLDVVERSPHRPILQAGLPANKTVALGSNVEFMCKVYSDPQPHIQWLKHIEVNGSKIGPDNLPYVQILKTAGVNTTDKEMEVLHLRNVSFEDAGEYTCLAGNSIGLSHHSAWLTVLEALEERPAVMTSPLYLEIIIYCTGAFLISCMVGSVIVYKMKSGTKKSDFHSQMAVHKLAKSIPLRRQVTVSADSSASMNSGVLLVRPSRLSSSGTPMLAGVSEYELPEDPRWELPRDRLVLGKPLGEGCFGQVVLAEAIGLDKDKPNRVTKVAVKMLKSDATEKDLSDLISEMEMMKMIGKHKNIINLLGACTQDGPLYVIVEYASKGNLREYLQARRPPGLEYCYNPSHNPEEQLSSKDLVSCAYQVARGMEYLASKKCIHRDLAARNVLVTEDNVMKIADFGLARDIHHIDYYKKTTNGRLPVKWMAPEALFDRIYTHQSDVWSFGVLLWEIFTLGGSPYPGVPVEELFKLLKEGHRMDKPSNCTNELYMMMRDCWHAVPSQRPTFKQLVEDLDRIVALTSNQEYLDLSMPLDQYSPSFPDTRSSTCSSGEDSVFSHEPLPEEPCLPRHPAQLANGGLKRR
Summary of the method: as §1

Fes(h) = molecular target: T16, Fes(h) (Homo sapiens, UniProt P07332); conditions: read-out: Inhibition(%) @ 1 µM RK-019
T16 construct: purchased Eurofins Discovery Services (KinaseProfiler)
Summary of the method: as §1

Flt1(h) = molecular target: T17, Flt1(h) (Homo sapiens, UniProt P17948); conditions: read-out: Inhibition(%) @ 1 µM RK-019
T17 construct: purchased Eurofins Discovery Services (KinaseProfiler)
Summary of the method: as §1

Flt3(D835Y)(h) = molecular target: T18, Flt3(D835Y)(h) (Homo sapiens, UniProt P36888, D835Y); conditions: read-out: Inhibition(%) @ 1 µM RK-019
T18 construct: purchased Eurofins Discovery Services (KinaseProfiler)
Summary of the method: as §1

Flt3(h) = molecular target: T19, Flt3(h) (Homo sapiens, UniProt P36888); conditions: read-out: Inhibition(%) @ 1 µM RK-019
T19 construct: purchased Eurofins Discovery Services (KinaseProfiler)
Summary of the method: as §1

GSK3β(h) = molecular target: T20, GSK3β(h) (Homo sapiens, UniProt P49841); conditions: read-out: Inhibition(%) @ 1 µM RK-019
T20 construct: purchased Eurofins Discovery Services (KinaseProfiler)
Summary of the method: as §1

MAPKAP-K2(h) = molecular target: T21, MAPKAP-K2(h) (Homo sapiens, UniProt P49137); conditions: read-out: Inhibition(%) @ 1 µM RK-019
T21 construct: purchased Eurofins Discovery Services (KinaseProfiler)
Summary of the method: as §1

MST4(h) = molecular target: T22, MST4(h) (Homo sapiens, UniProt Q9P289); conditions: read-out: Inhibition(%) @ 1 µM RK-019
T22 construct: purchased Eurofins Discovery Services (KinaseProfiler)
T22 sequence (Q9P289 whole entry): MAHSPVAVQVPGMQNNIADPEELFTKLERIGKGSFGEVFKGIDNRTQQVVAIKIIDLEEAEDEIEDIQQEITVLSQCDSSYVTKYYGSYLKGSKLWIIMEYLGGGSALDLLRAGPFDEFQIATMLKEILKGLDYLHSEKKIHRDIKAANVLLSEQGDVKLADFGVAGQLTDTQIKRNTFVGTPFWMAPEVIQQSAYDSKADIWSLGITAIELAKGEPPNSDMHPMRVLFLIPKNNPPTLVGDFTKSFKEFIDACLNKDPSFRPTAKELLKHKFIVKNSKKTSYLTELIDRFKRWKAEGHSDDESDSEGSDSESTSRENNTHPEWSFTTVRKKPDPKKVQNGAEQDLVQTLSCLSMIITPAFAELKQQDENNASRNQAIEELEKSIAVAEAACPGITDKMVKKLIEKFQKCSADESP
Summary of the method: as §1

NEK4(h) = molecular target: T23, NEK4(h) (Homo sapiens, UniProt P51957); conditions: read-out: Inhibition(%) @ 1 µM RK-019
T23 construct: purchased Eurofins Discovery Services (KinaseProfiler)
Summary of the method: as §1

NUAK2(h) = molecular target: T24, NUAK2(h) (Homo sapiens, UniProt Q9H093); conditions: read-out: Inhibition(%) @ 1 µM RK-019
T24 construct: purchased Eurofins Discovery Services (KinaseProfiler)
Summary of the method: as §1

PDGFRβ(h) = molecular target: T25, PDGFRβ(h) (Homo sapiens, UniProt P09619); conditions: read-out: Inhibition(%) @ 1 µM RK-019
T25 construct: purchased Eurofins Discovery Services (KinaseProfiler)
T25 sequence (P09619 33-1106): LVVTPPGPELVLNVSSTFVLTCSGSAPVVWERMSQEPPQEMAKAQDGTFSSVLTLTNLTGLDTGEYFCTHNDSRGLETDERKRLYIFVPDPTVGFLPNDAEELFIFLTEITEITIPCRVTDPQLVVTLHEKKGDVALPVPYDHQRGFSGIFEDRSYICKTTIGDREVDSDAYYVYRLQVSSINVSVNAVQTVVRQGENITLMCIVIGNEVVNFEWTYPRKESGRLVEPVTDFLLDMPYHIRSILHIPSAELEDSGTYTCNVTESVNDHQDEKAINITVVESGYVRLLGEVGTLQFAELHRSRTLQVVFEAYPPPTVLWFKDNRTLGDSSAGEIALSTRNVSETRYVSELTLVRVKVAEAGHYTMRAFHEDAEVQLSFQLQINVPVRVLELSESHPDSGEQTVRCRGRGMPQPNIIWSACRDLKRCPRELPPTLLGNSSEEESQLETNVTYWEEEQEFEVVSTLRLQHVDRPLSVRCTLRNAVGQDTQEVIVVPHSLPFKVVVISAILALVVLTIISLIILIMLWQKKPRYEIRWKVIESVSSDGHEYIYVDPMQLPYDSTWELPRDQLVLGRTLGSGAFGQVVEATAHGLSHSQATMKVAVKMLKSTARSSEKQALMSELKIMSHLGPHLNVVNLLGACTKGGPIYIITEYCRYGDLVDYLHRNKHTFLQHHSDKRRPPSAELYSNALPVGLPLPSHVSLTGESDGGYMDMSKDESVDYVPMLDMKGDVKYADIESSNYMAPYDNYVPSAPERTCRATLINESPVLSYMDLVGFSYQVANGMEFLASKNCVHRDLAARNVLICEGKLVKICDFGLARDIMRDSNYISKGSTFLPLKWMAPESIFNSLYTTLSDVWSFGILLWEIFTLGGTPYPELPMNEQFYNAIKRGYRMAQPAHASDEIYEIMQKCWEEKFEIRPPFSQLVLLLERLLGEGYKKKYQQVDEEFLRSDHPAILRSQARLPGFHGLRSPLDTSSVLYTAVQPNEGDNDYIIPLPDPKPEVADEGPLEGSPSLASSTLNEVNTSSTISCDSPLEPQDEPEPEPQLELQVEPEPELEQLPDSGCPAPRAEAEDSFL
Summary of the method: as §1

PDHK2(h) = molecular target: T26, PDHK2(h) (Homo sapiens, UniProt Q15119); conditions: read-out: Inhibition(%) @ 1 µM RK-019
T26 construct: purchased Eurofins Discovery Services (KinaseProfiler)
Summary of the method: as §1

[1] = molecular target: T27, PI3 Kinase (p110a(E542K)/p85a)(m) (Mus musculus, UniProt P42337, E542K); conditions: read-out: Inhibition(%) @ 1 µM RK-019
T27 construct: purchased Eurofins Discovery Services (KinaseProfiler)

[2] = molecular target: T28, PI3 Kinase (p110d/p85a)(h) (Homo sapiens, UniProt O00329); conditions: read-out: Inhibition(%) @ 1 µM RK-019
T28 construct: purchased Eurofins Discovery Services (KinaseProfiler)
T28 sequence (O00329 whole entry): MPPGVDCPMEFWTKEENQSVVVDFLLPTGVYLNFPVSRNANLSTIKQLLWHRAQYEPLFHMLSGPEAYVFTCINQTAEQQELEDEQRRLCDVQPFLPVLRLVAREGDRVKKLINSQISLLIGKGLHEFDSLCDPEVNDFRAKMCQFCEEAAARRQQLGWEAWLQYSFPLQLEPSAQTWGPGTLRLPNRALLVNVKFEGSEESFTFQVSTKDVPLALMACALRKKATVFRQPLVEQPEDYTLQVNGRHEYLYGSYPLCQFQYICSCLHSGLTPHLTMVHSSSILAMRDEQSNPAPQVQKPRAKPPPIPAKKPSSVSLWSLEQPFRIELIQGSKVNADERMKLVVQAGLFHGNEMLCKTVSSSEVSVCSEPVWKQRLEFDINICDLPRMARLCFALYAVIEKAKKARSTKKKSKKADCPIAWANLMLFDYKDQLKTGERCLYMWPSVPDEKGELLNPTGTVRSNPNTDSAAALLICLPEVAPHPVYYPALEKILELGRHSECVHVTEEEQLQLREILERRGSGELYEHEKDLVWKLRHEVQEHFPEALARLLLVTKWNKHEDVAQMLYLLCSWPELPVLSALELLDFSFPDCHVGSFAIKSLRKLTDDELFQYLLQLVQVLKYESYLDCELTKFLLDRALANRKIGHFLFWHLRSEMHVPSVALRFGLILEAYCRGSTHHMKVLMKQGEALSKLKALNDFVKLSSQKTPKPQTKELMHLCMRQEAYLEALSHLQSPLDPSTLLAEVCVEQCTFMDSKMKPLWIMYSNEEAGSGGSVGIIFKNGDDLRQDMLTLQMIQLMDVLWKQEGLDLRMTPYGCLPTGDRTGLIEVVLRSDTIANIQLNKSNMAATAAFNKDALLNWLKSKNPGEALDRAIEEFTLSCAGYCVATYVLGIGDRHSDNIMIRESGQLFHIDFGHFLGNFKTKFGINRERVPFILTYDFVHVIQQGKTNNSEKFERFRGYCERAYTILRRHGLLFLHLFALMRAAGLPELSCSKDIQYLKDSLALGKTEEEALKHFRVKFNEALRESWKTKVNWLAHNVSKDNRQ
T28 sequence (P27986 whole entry partner): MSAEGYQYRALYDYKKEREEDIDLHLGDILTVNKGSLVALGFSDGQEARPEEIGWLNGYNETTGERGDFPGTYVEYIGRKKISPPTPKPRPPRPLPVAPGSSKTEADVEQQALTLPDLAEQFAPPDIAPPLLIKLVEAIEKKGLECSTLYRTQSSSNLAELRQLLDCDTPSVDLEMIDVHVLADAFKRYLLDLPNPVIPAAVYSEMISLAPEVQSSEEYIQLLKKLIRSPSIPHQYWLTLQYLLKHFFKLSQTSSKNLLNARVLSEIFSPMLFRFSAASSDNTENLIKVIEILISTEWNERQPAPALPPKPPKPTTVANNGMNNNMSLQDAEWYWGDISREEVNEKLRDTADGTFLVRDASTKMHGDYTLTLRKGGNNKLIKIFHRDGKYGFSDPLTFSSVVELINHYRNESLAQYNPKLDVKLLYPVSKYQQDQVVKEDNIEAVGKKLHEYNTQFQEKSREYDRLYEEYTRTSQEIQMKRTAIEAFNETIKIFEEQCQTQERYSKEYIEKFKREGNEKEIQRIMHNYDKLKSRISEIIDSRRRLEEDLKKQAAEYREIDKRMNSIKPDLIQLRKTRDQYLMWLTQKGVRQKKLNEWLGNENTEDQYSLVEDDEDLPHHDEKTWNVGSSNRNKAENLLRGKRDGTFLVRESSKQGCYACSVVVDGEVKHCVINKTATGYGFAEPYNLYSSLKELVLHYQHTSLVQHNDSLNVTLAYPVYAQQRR
Summary of the method: as §1

PKCα(h) = molecular target: T29, PKCα(h) (Homo sapiens, UniProt P17252); conditions: read-out: Inhibition(%) @ 1 µM RK-019
T29 construct: purchased Eurofins Discovery Services (KinaseProfiler)
Summary of the method: as §1

PRAK(h) = molecular target: T30, PRAK(h) (Homo sapiens, UniProt Q8IW41); conditions: read-out: Inhibition(%) @ 1 µM RK-019
T30 construct: purchased Eurofins Discovery Services (KinaseProfiler)
Summary of the method: as §1

TAF1L(h) = molecular target: T31, TAF1L(h) (Homo sapiens, UniProt Q8IZX4); conditions: read-out: Inhibition(%) @ 1 µM RK-019
T31 construct: purchased Eurofins Discovery Services (KinaseProfiler)
Summary of the method: as §1

TBK1(h) = molecular target: T32, TBK1(h) (Homo sapiens, UniProt Q9UHD2); conditions: read-out: Inhibition(%) @ 1 µM RK-019
T32 construct: purchased Eurofins Discovery Services (KinaseProfiler)
Summary of the method: as §1

WNK1(h) = molecular target: T33, WNK1(h) (Homo sapiens, UniProt Q9H4A3); conditions: read-out: Inhibition(%) @ 1 µM RK-019
T33 construct: purchased Eurofins Discovery Services (KinaseProfiler)
Summary of the method: as §1

WNK2(h) = molecular target: T34, WNK2(h) (Homo sapiens, UniProt Q9Y3S1); conditions: read-out: Inhibition(%) @ 1 µM RK-019
T34 construct: purchased Eurofins Discovery Services (KinaseProfiler)
Summary of the method: as §1

ZAK(h) = molecular target: T35, ZAK(h) (Homo sapiens, UniProt Q9NYL2); conditions: read-out: Inhibition(%) @ 1 µM RK-019
T35 construct: purchased Eurofins Discovery Services (KinaseProfiler)
Summary of the method: as §1

cKit(D816H)(h) = molecular target: T36, cKit(D816H)(h) (Homo sapiens, UniProt P10721, D816H); conditions: read-out: Inhibition(%) @ 1 µM RK-019
T36 construct: purchased Eurofins Discovery Services (KinaseProfiler)
Summary of the method: as §1

COc1cc(OC)cc(N(CCN[C@H](C)CO)c2ccc3ncc(-c4cnn(C)c4)c(=O)n3c2)c1 [RK-019, (R)-7-((3,5-dimethoxyphenyl) (2-((1-hydroxypropan-2-yl)amino)ethyl)amino)-3-(1-methyl-1H-pyrazol-4-yl)-4H-pyrido [1,2-a]pyrimidin-4-one] gave an activity at 1 µM (ALK2(h)) of 90%, an activity at 1 µM (ALK6(h)) of 107% and an activity at 1 µM (Abl(h)) of 40%. It also gave an activity at 1 µM (Abl(m)) of 17%, an activity at 1 µM (BTK(h)) of 72% and an activity at 1 µM (CDK2/cyclinE(h)) of 123%. The activity at 1 µM (CK1γ2(h)) was 97%, the activity at 1 µM (CK2α1(h)) was 95% and the activity at 1 µM (CaMKIIδ(h)) was 108%. For the same molecule, the activity at 1 µM (CaMKK2(h)) was 95%, the activity at 1 µM (DCAMKL3(h)) was 127% and the activity at 1 µM (DDR1(h)) was 19%. For the same molecule, the activity at 1 µM (EGFR(T790M)(h)) was 90%, the activity at 1 µM (EphA8(h)) was 59% and the activity at 1 µM (FGFR1(h); FGFR1(h), read-out: Inhibition(%) @ 1 µM RK-019) was -1%. It also gave an inhibition at 1 µM (FGFR1(h); FGFR1, 1 µM, read-out: inhibition (hit in panel)) greater than 90%, an activity at 1 µM (Fes(h)) of 106% and an activity at 1 µM (Flt1(h)) of 29%. The activity at 1 µM (Flt3(D835Y)(h)) was 86%, the activity at 1 µM (Flt3(h)) was 123% and the activity at 1 µM (GSK3β(h)) was 96%. It also gave an activity at 1 µM (MAPKAP-K2(h)) of 121%, an activity at 1 µM (MST4(h)) of 90% and an activity at 1 µM (NEK4(h)) of 109%. The activity at 1 µM (NUAK2(h)) was 90%, the activity at 1 µM (PDGFRβ(h)) was 54% and the activity at 1 µM (PDHK2(h)) was 104%. The activity at 1 µM [1] was 99%, the activity at 1 µM [2] was 93% and the activity at 1 µM (PKCα(h)) was 97%. For the same molecule, the activity at 1 µM (PRAK(h)) was 95%, the activity at 1 µM (TAF1L(h)) was 100% and the activity at 1 µM (TBK1(h)) was 101%. For the same molecule, the activity at 1 µM (WNK1(h)) was 95%, the activity at 1 µM (WNK2(h)) was 103% and the activity at 1 µM (ZAK(h)) was 80%. The activity at 1 µM (cKit(D816H)(h)) was 58%.
